This assay deals with L1210 leukemia ip in BDF1 mice, survival T/C. The assay can be described thus: NCI In Vivo Anticancer Drug Screen. Data for tumor model L1210 Leukemia (intraperitoneal) in B6D2F1 (BDF1) mice. Particulars: endpoint: mean survival time, higher = longer survival. Summed up:
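Read-out is survival time, reported as the treated-group measurement over the vehicle-control measurement.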

Setting [1] is: dose: 100.0 mg/kg/injection, schedule: Q01DX001 (ip), vehicle: saline.
[2] abbreviates: dose: 200.0 mg/kg/injection, schedule: Q01DX001 (ip), vehicle: saline.
[3] abbreviates: dose: 100.0 mg/kg/injection, schedule: Q01DX009 (ip), vehicle: Klucel (hydroxypropylcellulose) (HPC).
The mark [4] stands for this setting: dose: 100.0 mg/kg/injection, schedule: Q04DX003 (ip), vehicle: Klucel (hydroxypropylcellulose) (HPC).
The mark [5] stands for this setting: dose: 200.0 mg/kg/injection, schedule: Q01DX009 (ip), vehicle: Klucel (hydroxypropylcellulose) (HPC).
[6] abbreviates: dose: 200.0 mg/kg/injection, schedule: Q04DX003 (ip), vehicle: Klucel (hydroxypropylcellulose) (HPC).
Setting [7] is: dose: 400.0 mg/kg/injection, schedule: Q01DX009 (ip), vehicle: Klucel (hydroxypropylcellulose) (HPC).
The mark [8] stands for this setting: dose: 400.0 mg/kg/injection, schedule: Q04DX003 (ip), vehicle: Klucel (hydroxypropylcellulose) (HPC).
Where [9] appears, read: dose: 400.0 mg/kg/injection, schedule: Q01DX001 (ip), vehicle: saline.
The mark [10] stands for this setting: dose: 50.0 mg/kg/injection, schedule: Q01DX009 (ip), vehicle: Klucel (hydroxypropylcellulose) (HPC).

Several values for one entry are separate records, joined by “and”; a condition that tells them apart may be missing. Equal values may be shown once. Toxic doses and inconclusive results are not listed.

`O=C(CNC(=O)c1ccc(Cl)cc1)NO`: the T/C is, setting by setting: (dose: 100.0 mg/kg/injection, schedule: Q01DX001 (ip), vehicle: Klucel (hydroxypropylcellulose) (HPC)) 96 % of control; (dose: 200.0 mg/kg/injection, schedule: Q01DX001 (ip), vehicle: Klucel (hydroxypropylcellulose) (HPC)) 102 % of control; (dose: 400.0 mg/kg/injection, schedule: Q01DX001 (ip), vehicle: Klucel (hydroxypropylcellulose) (HPC)) 96 % of control.
Regarding `CC1(C)N=C(N)N=C(N)N1c1cccc(OCCOc2ccc([N+](=O)[O-])cc2)c1`, the T/C is, setting by setting: under setting [1], 101 % of control; under setting [2], 95 % of control.
With `Cc1cc2c([N+](=O)[O-])c3ccc(N4CCCCC4)nn3c2n[n+]1[O-]`, the T/C is 95 % of control (dose: 31.3 mg/kg/injection, schedule: Q04DX002 (ip), vehicle: Klucel (hydroxypropylcellulose) (HPC)); 111 % of control (dose: 62.5 mg/kg/injection, schedule: Q04DX002 (ip), vehicle: Klucel (hydroxypropylcellulose) (HPC)); 122 % of control (dose: 125.0 mg/kg/injection, schedule: Q04DX002 (ip), vehicle: Klucel (hydroxypropylcellulose) (HPC)).
Turning to `CC(=O)C1CCCC1=O` (centres undefined), the T/C is, setting by setting: (dose: 100.0 mg/kg/injection, schedule: Q01DX001 (ip), vehicle: acetone) 103 % of control; (dose: 100.0 mg/kg/injection, schedule: Q04DX003 (ip), vehicle: acetone) 97 % of control; (dose: 200.0 mg/kg/injection, schedule: Q01DX001 (ip), vehicle: acetone) 97 % of control; (dose: 200.0 mg/kg/injection, schedule: Q04DX003 (ip), vehicle: acetone) 97 % of control; (dose: 400.0 mg/kg/injection, schedule: Q01DX001 (ip), vehicle: acetone) 95 % of control; (dose: 400.0 mg/kg/injection, schedule: Q04DX003 (ip), vehicle: acetone) 95 % of control.
On to `C(=C/c1ccccc1)/C=C/C(=C/c1ccccc1)c1ccccc1`, for which the T/C reads like this: (dose: 100.0 mg/kg/injection, schedule: Q04DX003 (ip), vehicle: saline with Tween-80) 91 % of control; (dose: 200.0 mg/kg/injection, schedule: Q04DX003 (ip), vehicle: saline with Tween-80) 87 % of control and 96 % of control; (dose: 400.0 mg/kg/injection, schedule: Q04DX003 (ip), vehicle: saline with Tween-80) 87 % of control and 91 % of control.
For `CC1(C)OCC(CO)(Nc2nc(N3CC3)nc(N3CC3)n2)CO1`, the T/C was 105 % of control (dose: 0.31 mg/kg/injection, schedule: Q01DX009 (ip), vehicle: saline); 111 % of control (dose: 0.62 mg/kg/injection, schedule: Q01DX009 (ip), vehicle: saline); 152 % of control and 168 % of control (dose: 2.5 mg/kg/injection, schedule: Q01DX009 (ip), vehicle: saline); 101 % of control (dose: 7.5 mg/kg/injection, schedule: Q01DX009 (ip), vehicle: saline).
`N#Cc1ccc2c(c1)Nc1ccccc1S2`: the T/C reads like this: under setting [3], 101 % of control; under setting [4], 103 % of control; under setting [5], 99 % of control; under setting [6], 92 % of control; under setting [7], 89 % of control; under setting [8], 105 % of control.
As for `Nc1ccc(N=Nc2ccc(S(=O)(=O)O)cc2)cc1`, the T/C by setting is: (dose: 100.0 mg/kg/injection, schedule: Q01DX009 (ip), vehicle: saline with Tween-80) 87 % of control; (dose: 200.0 mg/kg/injection, schedule: Q01DX009 (ip), vehicle: saline with Tween-80) 95 % of control; (dose: 400.0 mg/kg/injection, schedule: Q01DX009 (ip), vehicle: saline with Tween-80) 97 % of control.
Turning to `Cc1cc([N+](=O)[O-])ccc1S(N)(=O)=O`, the T/C reads like this: under setting [4], 105 % of control; under setting [6], 105 % of control; under setting [8], 109 % of control.
On to `CCOP(=S)(Nc1cccc(C(F)(F)F)c1)OCC`, for which the T/C under setting [1] is 102 % of control, the T/C under setting [2] was 100 % of control and the T/C under setting [9] is 96 % of control.
For `CCOC(=O)NC(CCl)NC(=O)OCC` the same measures were 95 % of control, 101 % of control and 103 % of control.
`Cc1ccc2cccnc2c1`: the T/C runs as follows: (dose: 100.0 mg/kg/injection, schedule: Q01DX001 (ip), vehicle: carboxymethylcellulose (CMC)) 93 % of control; (dose: 200.0 mg/kg/injection, schedule: Q01DX001 (ip), vehicle: carboxymethylcellulose (CMC)) 93 % of control; (dose: 400.0 mg/kg/injection, schedule: Q01DX001 (ip), vehicle: carboxymethylcellulose (CMC)) 86 % of control.
With `CCN(CC)CCN1c2cc(C)ccc2Sc2ccc3ccccc3c21`, the T/C reads like this: (dose: 100.0 mg/kg/injection, schedule: Q01DX001 (sc), vehicle: olive oil, sesame oil, peanut oil) 101 % of control; (dose: 100.0 mg/kg/injection, schedule: Q01DX009 (sc), vehicle: olive oil, sesame oil, peanut oil) 101 % of control; (dose: 100.0 mg/kg/injection, schedule: Q04DX003 (sc), vehicle: olive oil, sesame oil, peanut oil) 110 % of control; (dose: 200.0 mg/kg/injection, schedule: Q01DX001 (sc), vehicle: olive oil, sesame oil, peanut oil) 100 % of control; (dose: 200.0 mg/kg/injection, schedule: Q01DX009 (sc), vehicle: olive oil, sesame oil, peanut oil) 118 % of control; (dose: 200.0 mg/kg/injection, schedule: Q04DX003 (sc), vehicle: olive oil, sesame oil, peanut oil) 110 % of control. Besides, the T/C (dose: 400.0 mg/kg/injection, schedule: Q01DX001 (sc), vehicle: olive oil, sesame oil, peanut oil) was 101 % of control and the T/C (dose: 400.0 mg/kg/injection, schedule: Q04DX003 (sc), vehicle: olive oil, sesame oil, peanut oil) is 113 % of control.
With `COc1ccc(OC)c(NC(=O)c2ccc(Cl)cc2Cl)c1`, the T/C by setting is: under setting [3], 95 % of control; under setting [5], 93 % of control; under setting [7], 95 % of control.
Take `CC/C(=C\c1ccc2ccccc2c1)[N+](=O)[O-]`: the T/C is, setting by setting: (dose: 75.0 mg/kg/injection, schedule: Q01DX001 (ip), vehicle: saline) 97 % of control; (dose: 150.0 mg/kg/injection, schedule: Q01DX001 (ip), vehicle: saline) 103 % of control.
In the case of `COc1cccc(/C=C/[N+](=O)[O-])c1OC`, the T/C is 90 % of control (dose: 17.5 mg/kg/injection, schedule: Q01DX009 (ip), vehicle: saline with Tween-80); 101 % of control (dose: 35.0 mg/kg/injection, schedule: Q01DX009 (ip), vehicle: saline with Tween-80); 103 % of control (dose: 50.0 mg/kg/injection, schedule: Q01DX001 (ip), vehicle: other); 107 % of control (dose: 50.0 mg/kg/injection, schedule: Q01DX009 (ip), vehicle: saline); 95 % of control (dose: 70.0 mg/kg/injection, schedule: Q01DX009 (ip), vehicle: saline with Tween-80); 97 % of control (dose: 100.0 mg/kg/injection, schedule: Q01DX001 (ip), vehicle: other). The T/C reads like this: (dose: 100.0 mg/kg/injection, schedule: Q04DX003 (ip), vehicle: saline) 108 % of control; (dose: 200.0 mg/kg/injection, schedule: Q01DX001 (ip), vehicle: other) 103 % of control; (dose: 200.0 mg/kg/injection, schedule: Q04DX003 (ip), vehicle: saline) 100 % of control.
Regarding `CCN(CC)c1ccc(C(=C(c2ccc(N(CC)CC)cc2)c2ccc(N(CC)CC)cc2)c2ccc(N(CC)CC)cc2)cc1`, the T/C under setting [10] was 88 % of control; the T/C under setting [3] is 101 % of control; the T/C under setting [4] was 90 % of control; the T/C under setting [5] was 91 % of control; the T/C under setting [6] was 101 % of control.
With `COc1ccc(C(=Nc2ccc(C)cc2)c2ccccc2)cc1`, the T/C is, setting by setting: (dose: 12.0 mg/kg/injection, schedule: Q01DX009 (ip), vehicle: Klucel (hydroxypropylcellulose) (HPC)) 105 % of control; (dose: 12.5 mg/kg/injection, schedule: Q01DX009 (ip), vehicle: Klucel (hydroxypropylcellulose) (HPC)) 102 % of control; (dose: 25.0 mg/kg/injection, schedule: Q01DX009 (ip), vehicle: Klucel (hydroxypropylcellulose) (HPC)) 105 % of control; under setting [10], 97 % of control and 113 % of control; under setting [3], 122 % of control; under setting [4], 101 % of control. For the same compound, the T/C is 107 % of control under setting [5], 98 % of control under setting [6], 107 % of control under setting [7] and 98 % of control under setting [8].

The record behind these values is PubChem BioAssay AID248 (DTP/NCI, 2004).
